Laboratory results taken from US20220395458A1, “PREVENTION OF VISIBLE PARTICLE FORMATION IN AQUEOUS PROTEIN SOLUTIONS” (Hoffmann-La Roche Inc., priority 2019, published 2022).
Converted amounts (≈) assume the structure as drawn.

Tests used:
[1] = Visible particles in E/P box (Ph. Eur. 2.9.20) after spiking FFA to inorganic salt solutions; format: physicochemical; details: FFA below solubility limit; for Visible particles E/P d0: d0 directly after spiking
Method: Aqueous stock solutions were prepared in 0.02% PS20 (Croda. Edison, N.J., USA) at defined concentrations of (1) 5 mg/mL and (2) 12.5 mg/mL (lauric acid. Sigma-Aldrich/Merck. Darmstadt. Del.) or (1) 1.5 mg/mL and (2) 5 mg/mL (myristic acid, Sigma-Aldrich/Merck. Darmstadt. Del.) as previously described by Doshi et al.^6 The procedure was adapted that the FFA/PS20 stock solution was sterile filtered using 0.22 μm PVDF Steriflip filters (Merck Millipore. Darmstadt. Del.) before 1:10 dilution and subsequently homogenized without a magnetic stirrer using a Heidolph Rotamax 120 orbital shaker (Schwabach. Del.) at 100 rpm at 25° C., for 1 hour. After 1:500 dilution, the solution was homogenized for 1 hour at 25° C., before homogenization at 2-8° C., overnight, 12-40 μL of stock solution were used for spiking experiments yielding final FFA concentrations of (1) 10 μg/mL and (2) 25 μg/mL (lauric acid) or (1) 3 μg/mL and (2) 10 μg/mL (myristic acid). Dilutions with stock solutions 1 yield FFA concentration below their solubility limit, whereas stock solutions 2 act as positive control confirmed by the formation of visible particles. FFA concentrations were verified for selected by LC-MS samples acc. Honemann et al.^7
Aqueous stock solutions of different salts were prepared at 1 mg/mL and used for spiking experiments to final concentrations between […]. NaCl, NaAlO2. NaBO2. B2O3, and CaCl2 (Sigma-Aldrich/Merck. Darmstadt. Del.) were selected as their dissolution products (ions) represent typical glass leachables from Type I borosilicate glass. The pH of the NaAlO2 and NaBO2 stock solutions was adjusted to pH 6 using HCl and subsequently filtered using 0.22 μm PVDF Sterivex filters (Merck Millipore. Darmstadt. Del.) and true elemental concentrations were determined by inductively-coupled plasma mass spectrometry (ICP-MS). Elemental concentrations were 0,048 μg/mL Aluminium and 295 μg/mL sodium and 78 μg/mL boron and 168 μg/mL, respectively. Spiking experiments with FFA were performed in duplicates.
Samples were analyzed by visual inspection on a Seidenader V 90-T instrument (Seidenader Maschinenbau GmbH. Markt Schwaben. Del.) as previously described by Ditter et al.^9 and using a black/white panel according Ph. Eur. 2.9.20.^10 and classified as Many particles (>7). Few particles (4-7), or Practically free of particles (0-4) in E/P box, and Many particles (>10). Few particles (6-10). Essentially free of particles (1-5), or Free of particles (0) by Seidenader.
(§1) pH of all solutions was verified. Samples were visually inspected immediately after spiking and regularly for up to 7 days. Further characterization by HIAC, turbidity, FTIR, and SEM-EDX was performed on day 1 only. All samples were analyzed when equilibrated to room temperature (4 h).
Different inorganic salt solutions, i.e. CaCl2. NaAlO2. NaBO2. B2O3, and NaCl, were prepared simulating artificial glass leachables. Myristic and lauric acid, as main degradation product from hydrolytic PS20 degradation, were added at concentrations below their solubility limit and samples were analyzed for visible particles. SVP, and turbidity. Samples were compared against relevant controls and the pH verified at pH 6.

[2] = Particle identification by FTIR; format: physicochemical; details: particle identification d1
Method: Particles >20 μm were further identified by Fourier transformed infrared spectroscopy (FTTIR) using a Nicolet™ iNTM10 Infrared Microscope (Thermo Fisher Scientific) by comparison to reference spectra. Samples were filtrated under laminar air flow through gold-coated polycarbonate filters (pore size 0.8 μm, diameter 13 mm, Sterlitech). Filter conditioning included few droplets of ethanol followed by 1 mL of particle-free water. After filtration of the samples, ˜1 mL of cooled particle-free water was used as a final washing step before analysis.
as §1
Glass leachables were generated from different types of glass vials, e.g. Exp33 and Exp51 vials, with different matrix solutions including WFI, a glycine solution adjusted to pH 6, and a placebo solution representative for a mAb formulation. Defined amounts of myristic and lauric acid below their solubility limit were added to the solutions/mixtures of glass leachables and analyzed. Visible particles in Seidenader are summarized in Table 3 and were detected for all samples in contrast to various controls. Particle formation was dependent on the glass leachable solution and dependent on incubation time. […] An example for the dependency of particle formation on incubation time is provided in Table 3 for myristic acid in glass leachable solution from Exp51 vials/glycine solution. The example highlights the kinetics of particle formation with no particles directly after spiking and more than 10 particles at incubation day 5 and 7. For selected samples, particles were further characterized and identified by FTIR confirming the presence of free fatty acids. FFA were not confirmed by FTIR for glass leachable solutions generated with WFI, which is linked to the time point of FTIR analysis at d1 and the late onset of particle formation for these samples. Placebo samples were not analyzed further by FTIR as the positive control was found negative attributed to the presence of additional 0.02% PS20, potentially solubilizing the FFA seeds. Characterization of the particles by SEM-EDX confirmed the presence of glass leachables, like Aluminium or silicon on the surface of the FFA particles. […] The spiking study highlights that mixtures of ‘real’ glass leachables lead to precipitation of FFA and particle formation in the visible range dependent on mixture and amount of glass leachables as well as dependent on incubation time, […]

[3] = in water at room temperature; cited from earlier work
[4] = CaCl2 250 μg/mL (Ca2+ 90 μg/mL)
[5] = CaCl2 500 μg/mL (Ca2+ 180 μg/mL)
[6] = CaCl2 1000 μg/mL (Ca2+ 360 μg/mL)
[7] = NaAlO2 nominal 250 μg/mL (0.012 μg/mL ion)
[8] = NaAlO2 nominal 500 μg/mL (0.024 μg/mL ion)
[9] = NaAlO2 nominal 1000 μg/mL (0.048 μg/mL ion)

CCCCCCCCCCCCCC(=O)O [Myristic acid, myristic acid]
Visible particles E/P d0 [1, 4]: / (Practically free of particles (0-4, /) in E/P box)
Visible particles E/P d1 [1, 4]: / (Practically free of particles (0-4, /) in E/P box)
Visible particles E/P d2 [1, 4]: / (Practically free of particles (0-4, /) in E/P box)
Visible particles E/P d7 [1, 4]: xxx (Many particles (>7, xxx))
Visible particles E/P d0 [1, 5]: / (Practically free of particles (0-4, /) in E/P box)
Visible particles E/P d1 [1, 5]: xx (Few particles (4-7, xx))
Visible particles E/P d7 [1, 5]: xxx (Many particles (>7, xxx))
Visible particles E/P d0 [1, 6]: / (Practically free of particles (0-4, /) in E/P box)
Visible particles E/P d1 [1, 6]: xxx (Many particles (>7, xxx))
Visible particles E/P d2 [1, 6]: xxx (Many particles (>7, xxx))
Visible particles E/P d7 [1, 6]: xxx (Many particles (>7, xxx))
Visible particles E/P d0 [1, 7]: / (Practically free of particles (0-4, /) in E/P box)
Visible particles E/P d1 [1, 7]: / (Practically free of particles (0-4, /) in E/P box)
Visible particles E/P d2 [1, 7]: / (Practically free of particles (0-4, /) in E/P box)
Visible particles E/P d7 [1, 7]: / (Practically free of particles (0-4, /) in E/P box)
Visible particles E/P d0 [1, 8]: / (Practically free of particles (0-4, /) in E/P box)
Visible particles E/P d1 [1, 8]: / (Practically free of particles (0-4, /) in E/P box)
Visible particles E/P d2 [1, 8]: / (Practically free of particles (0-4, /) in E/P box)
Visible particles E/P d0 [1, 9]: / (Practically free of particles (0-4, /) in E/P box)
Visible particles E/P d1 [1, 9]: / (Practically free of particles (0-4, /) in E/P box)
Visible particles E/P d7 [1, 9]: xxx (Many particles (>7, xxx))
FTIR ([2]; Exp33 vials, 3xTS Glycine pH 6): FFA
FTIR ([2]; Exp51 vials, 3xTS Glycine pH 6): FFA
solubility level [3]: 7 µg/mL (≈ 30.7 µM)

CCCCCCCCCCCC(=O)O [Lauric acid, lauric acid]
Visible particles E/P d0 [1, 4]: / (Practically free of particles (0-4, /) in E/P box)
Visible particles E/P d2 [1, 4]: / (Practically free of particles (0-4, /) in E/P box)
Visible particles E/P d7 [1, 4]: / (Practically free of particles (0-4, /) in E/P box)
Visible particles E/P d0 [1, 5]: / (Practically free of particles (0-4, /) in E/P box)
Visible particles E/P d2 [1, 5]: / (Practically free of particles (0-4, /) in E/P box)
Visible particles E/P d7 [1, 5]: / (Practically free of particles (0-4, /) in E/P box)
Visible particles E/P d0 [1, 6]: / (Practically free of particles (0-4, /) in E/P box)
Visible particles E/P d2 [1, 6]: xx (Few particles (4-7, xx))
Visible particles E/P d7 [1, 6]: / (Practically free of particles (0-4, /) in E/P box)
Visible particles E/P d0 [1, 7]: / (Practically free of particles (0-4, /) in E/P box)
Visible particles E/P d1 [1, 7]: / (Practically free of particles (0-4, /) in E/P box)
Visible particles E/P d2 [1, 7]: / (Practically free of particles (0-4, /) in E/P box)
Visible particles E/P d7 [1, 7]: / (Practically free of particles (0-4, /) in E/P box)
Visible particles E/P d0 [1, 8]: / (Practically free of particles (0-4, /) in E/P box)
Visible particles E/P d1 [1, 8]: / (Practically free of particles (0-4, /) in E/P box)
Visible particles E/P d2 [1, 8]: / (Practically free of particles (0-4, /) in E/P box)
Visible particles E/P d7 [1, 8]: / (Practically free of particles (0-4, /) in E/P box)
Visible particles E/P d0 [1, 9]: / (Practically free of particles (0-4, /) in E/P box)
Visible particles E/P d1 [1, 9]: / (Practically free of particles (0-4, /) in E/P box)
Visible particles E/P d2 [1, 9]: / (Practically free of particles (0-4, /) in E/P box)
Visible particles E/P d7 [1, 9]: / (Practically free of particles (0-4, /) in E/P box)
FTIR ([2]; Exp33 vials, 3xTS WFI): FFA
FTIR ([2]; Exp51 vials, 3xTS Glycine pH 6): FFA
solubility level [3]: 15 µg/mL (≈ 74.9 µM)
